Test results taken from ChEMBL document CHEMBL1201862, “PubChem BioAssay data set” (2004).
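Results reflect a 48-hour exposure of cells in 96-well plates to compound at five concentrations. GI50: concentration for 50% inhibition of growth.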 Activity calls are given as the source filed them. No stated cut-off is given here; in the data, active = GI50 up to about 1.1 µM and inactive = higher.

Experiments:
Test in all cases: growth of human tumour cells (NCI), 48 h
[1] = tested on: A549
[2] = tested on: SNB-75
[3] = tested on: U-251
[4] = tested on: HOP-62
[5] = tested on: SF-268
[6] = tested on: HOP-92
[7] = tested on: NCI-H23
[8] = tested on: COLO 205
[9] = tested on: OVCAR-8
[10] = tested on: Malme-3M
[11] = tested on: IGROV-1
[12] = tested on: SN12C
[13] = tested on: SK-MEL-2
[14] = tested on: SF-539
[15] = tested on: K562
[16] = tested on: HL-60
[17] = tested on: SK-OV-3
[18] = tested on: 786-0
[19] = tested on: NCI-H226
[20] = tested on: UACC-62

Row | SMILES | GI50 [1] | GI50 [2] | GI50 [3] | GI50 [4] | GI50 [5] | GI50 [6] | GI50 [7] | GI50 [8] | GI50 [9] | GI50 [10] | GI50 [11] | GI50 [12] | GI50 [13] | GI50 [14] | GI50 [15] | GI50 [16] | GI50 [17] | GI50 [18] | GI50 [19] | GI50 [20]
1 | N#CC(C#N)=CNC(N)=S | > 100 µM (inactive) | > 100 µM (inactive) | > 100 µM (inactive) | > 100 µM (inactive) | > 100 µM (inactive) | > 100 µM (inactive) | > 100 µM (inactive) | > 100 µM (inactive) | > 100 µM (inactive) | > 100 µM (inactive) | > 100 µM (inactive) | > 100 µM (inactive) | > 100 µM (inactive) | > 100 µM (inactive) | > 100 µM (inactive) | > 100 µM (inactive) | > 100 µM (inactive) | > 100 µM (inactive) | > 100 µM (inactive) | > 100 µM (inactive)
2 | CCCCCN(CCCCC)C(=O)[C@H](CCC(=O)O)NC(=O)c1cc2ccccc2[nH]1 | 88.5 µM (inactive) | 32.7 µM (inactive) | 35.7 µM (inactive) | 56 µM (inactive) | 33.9 µM (inactive) | 32.3 µM (inactive) | 28.2 µM (inactive) | > 100 µM (inactive) | 77.1 µM (inactive) | 94.8 µM (inactive) | 45.4 µM (inactive) | 48.5 µM (inactive) | 41.9 µM (inactive) | 41.2 µM (inactive) | 34.8 µM (inactive) | 29.3 µM (inactive) | > 100 µM (inactive) | 92.7 µM (inactive) | 36.6 µM (inactive) | 28.1 µM (inactive)
3 | COC(=O)[C@]1(C)CCC[C@]2(C)[C@H]3CC[C@]4(C(C)C)OO[C@@H](O4)[C@]34O[C@@H]4C[C@H]21 | 1.81 µM (inactive) | 3.87 µM (inactive) | 3.65 µM (inactive) | 2.12 µM (inactive) | 2.24 µM (inactive) | 1.97 µM (inactive) | 6.56 µM (inactive) | 2.14 µM (inactive) | 3.61 µM (inactive) | 6.68 µM (inactive) | 0.157 µM (active) | 3.02 µM (inactive) | 14.3 µM (inactive) | 10.6 µM (inactive) | 1.99 µM (inactive) | 1.68 µM (inactive) | 2.32 µM (inactive) | 1.6 µM (inactive) | 4.49 µM (inactive) | 5.3 µM (inactive)
4 | Cc1cc(C)c([S@@](=O)O[C@@H]2[C@H]3OC(C)(C)O[C@H]3O[C@@H]2[C@H]2COC(C)(C)O2)c(C)c1 | 29.4 µM (inactive) | 21.8 µM (inactive) | 20.2 µM (inactive) | 21.5 µM (inactive) | 31.9 µM (inactive) | 16.6 µM (inactive) | 31.6 µM (inactive) | 16.3 µM (inactive) | 19.1 µM (inactive) | 25.5 µM (inactive) | 4.24 µM (inactive) | 21 µM (inactive) | 31.2 µM (inactive) | 19.5 µM (inactive) | 25.9 µM (inactive) | 4.18 µM (inactive) | 36.6 µM (inactive) | 26.9 µM (inactive) | 24.6 µM (inactive) | 22 µM (inactive)
5 | O=C(CSc1nc2ccc(Cl)cc2c(=O)n1-c1ccccc1)N/N=C1\C(=O)Nc2ccc(F)cc21 | 2.37 µM (inactive) | 2.24 µM (inactive) | 1.74 µM (inactive) | 1.75 µM (inactive) | 2.82 µM (inactive) | 2.49 µM (inactive) | 2.92 µM (inactive) | 2.21 µM (inactive) | 1.69 µM (inactive) | 3.57 µM (inactive) | 2.17 µM (inactive) | 2.08 µM (inactive) | 1.95 µM (inactive) | 2.86 µM (inactive) | 3.72 µM (inactive) | 3.66 µM (inactive) | 8.34 µM (inactive) | 2.1 µM (inactive) | 3.5 µM (inactive) | 2.39 µM (inactive)
6 | Nc1cc2nc(O)c(O)nc2cc1N | > 100 µM (inactive) | > 100 µM (inactive) | > 100 µM (inactive) | > 100 µM (inactive) | > 100 µM (inactive) | > 100 µM (inactive) | > 100 µM (inactive) | > 100 µM (inactive) | > 100 µM (inactive) | > 100 µM (inactive) | > 100 µM (inactive) | > 100 µM (inactive) | > 100 µM (inactive) | > 100 µM (inactive) | > 100 µM (inactive) | > 100 µM (inactive) | > 100 µM (inactive) | > 100 µM (inactive) | > 100 µM (inactive) | > 100 µM (inactive)
7 | N#Cc1c2c(c(Nc3ccc(Cl)cc3)n3c1nc1ccccc13)CCCC2 | 43 µM (inactive) | 28.7 µM (inactive) | 18.5 µM (inactive) | 31.2 µM (inactive) | 44 µM (inactive) | > 37.4 µM (inactive) | > 71.3 µM (inactive) | 37.9 µM (inactive) | 37.6 µM (inactive) | > 67.6 µM (inactive) | 47.4 µM (inactive) | 65.9 µM (inactive) | > 63.8 µM (inactive) | 21.1 µM (inactive) | 4.46 µM (inactive) | 7.03 µM (inactive) | 54.7 µM (inactive) | 26.9 µM (inactive) | > 64.3 µM (inactive) | > 100 µM (inactive)
8 | C=CCNC1=C2C[C@@H](C)C[C@H](OC)[C@H](O)[C@@H](C)/C=C(\C)[C@H](OC(N)=O)[C@@H](OC)/C=C\C=C(/C)C(=O)NC(=CC1=O)C2=O [TANESPIMYCIN] | 0.0369 µM (active) | 0.0173 µM (active) | 0.158 µM (active) | 0.15 µM (active) | 0.593 µM (active) | 3.69 µM (inactive) | 0.014 µM (active) | 0.0124 µM (active) | 0.0607 µM (active) | 0.0619 µM (active) | 0.0331 µM (active) | 0.0308 µM (active) | 0.292 µM (active) | 0.0428 µM (active) | 0.0405 µM (active) | 0.0489 µM (active) | 0.0262 µM (active) | 0.0638 µM (active) | 4.49 µM (inactive) | 0.0326 µM (active)
9 | COc1cc(/C=N/n2c(-c3ccccc3)nn(C(C)=O)c2=O)cc(OC)c1OC | 3.2 µM (inactive) | 3.01 µM (inactive) | 3 µM (inactive) | 12 µM (inactive) | 6.27 µM (inactive) | > 33.9 µM (inactive) | 4.07 µM (inactive) | 1.58 µM (inactive) | 3.78 µM (inactive) | 5.36 µM (inactive) | 2.11 µM (inactive) | 5.33 µM (inactive) | 1.72 µM (inactive) | 1.66 µM (inactive) | 0.557 µM (active) | 0.745 µM (active) | 4.2 µM (inactive) | 4.36 µM (inactive) | 18.5 µM (inactive) | 1.92 µM (inactive)
10 | Cc1ccc(-c2nc(-c3nccc4ccccc34)oc2-c2ccccc2)cc1 | 40.6 µM (inactive) | 31.6 µM (inactive) | 72.9 µM (inactive) | > 100 µM (inactive) | 73.5 µM (inactive) | 30.3 µM (inactive) | > 100 µM (inactive) | 42.9 µM (inactive) | 79.1 µM (inactive) | 96.4 µM (inactive) | > 100 µM (inactive) | 24.8 µM (inactive) | 51.9 µM (inactive) | 46 µM (inactive) | 55.1 µM (inactive) | > 100 µM (inactive) | 68.9 µM (inactive) | 26.6 µM (inactive) | > 100 µM (inactive) | 46.6 µM (inactive)
11 | CC(=O)O/C=C\OC1CCCC1(c1ccccc1)c1ccccc1 (stereo not given) | 20.4 µM (inactive) | 3.35 µM (inactive) | 3.52 µM (inactive) | 12.4 µM (inactive) | 2.92 µM (inactive) | 1.82 µM (inactive) | 2.49 µM (inactive) | 4.08 µM (inactive) | 2.42 µM (inactive) | 2.18 µM (inactive) | 2.24 µM (inactive) | 3.32 µM (inactive) | 3.57 µM (inactive) | 1.73 µM (inactive) | 2.16 µM (inactive) | 1.34 µM (inactive) | 14.4 µM (inactive) | 3.21 µM (inactive) | 9.04 µM (inactive) | 5.27 µM (inactive)
12 | O=c1[nH]c2c(c(=O)[nH]1)SSC2 | 25.9 µM (inactive) | 17.1 µM (inactive) | 11.8 µM (inactive) | 10.6 µM (inactive) | 3.67 µM (inactive) | 2.51 µM (inactive) | 12.7 µM (inactive) | 21.4 µM (inactive) | 4.16 µM (inactive) | 3.9 µM (inactive) | 22.3 µM (inactive) | 2.75 µM (inactive) | 6.44 µM (inactive) | 3.14 µM (inactive) | 0.74 µM (active) | 1.99 µM (inactive) | 21.4 µM (inactive) | 4.89 µM (inactive) | 19.4 µM (inactive) | 3.03 µM (inactive)
13 | O=C(Nc1ccc(Cl)cc1)NS(=O)(=O)c1c(-c2ccccc2)oc2ccccc2c1=O | 39 µM (inactive) | > 100 µM (inactive) | 58.2 µM (inactive) | 71.6 µM (inactive) | > 100 µM (inactive) | 89.3 µM (inactive) | 67 µM (inactive) | 56.4 µM (inactive) | 59.3 µM (inactive) | > 100 µM (inactive) | 83 µM (inactive) | > 100 µM (inactive) | 45.2 µM (inactive) | 47.9 µM (inactive) | 48 µM (inactive) | 61.7 µM (inactive) | > 100 µM (inactive) | > 100 µM (inactive) | > 100 µM (inactive) | 1.97 µM (inactive)
